Test results taken from article PMC6522510 (Nature Communications, 2019).
Structures can show the parent of a compound that is named as a salt. Where two headings read alike, the source gives them in different places.

How the values were obtained:
Parameters in all cases: species or system AML cell lines (8); Primary HTS, single concentration about 10 uM, Cell Titer Glo viability; log10 luminescence, per cent inhibition relative to cycloheximide control
Conditions in all cases: 72 h, relative to cycloheximide control, log10 luminescence, inhibitor
CHRF288-11 = tested on: CHRF288-11
CMK = tested on: CMK
CMS = tested on: CMS
M07e = tested on: M07e
ML-2 = tested on: ML-2
MOLM-13 = tested on: MOLM-13
MV4-11 = tested on: MV4-11
U937 = tested on: U937

## CC(CN(C)C)CN1c2ccccc2Sc2ccccc21 (stereo not shown) [SJ000285488-4, TRIMEPRAZINE TARTRATE]
CHRF288-11
  CHRF288-11 %inh: 12.91%
CMK
  CMK %inh: 71.37%
CMS
  CMS %inh: -1.909%
M07e
  M07e %inh: 5.667%
ML-2
  ML-2 %inh: 2.204%
MOLM-13
  MOLM-13 %inh: 6.284%
MV4-11
  MV4-11 %inh: 2.005%
U937
  U937 %inh: 3.719%

## CC(C)(S)[C@@H](N)C(=O)O [SJ000285530-3, PENICILLAMINE]
CHRF288-11
  CHRF288-11 %inh: 1.093%
CMK
  CMK %inh: -2.957%
CMS
  CMS %inh: 1.349%
M07e
  M07e %inh: 4.147%
ML-2
  ML-2 %inh: 0.1436%
MOLM-13
  MOLM-13 %inh: 4.905%
MV4-11
  MV4-11 %inh: 0.7087%
U937
  U937 %inh: -1.029%

## CN1C(C(=O)Nc2ccccn2)=C(O)c2ccccc2S1(=O)=O [SJ000285539-7, PIROXICAM]
CHRF288-11; CHRF288-11 %inh, 10 µM
  CHRF288-11 %inh: -2.388%
CMK; CMK %inh, 10 µM
  CMK %inh: -2.958%
CMS; CMS %inh, 10 µM
  CMS %inh: -2.071%
M07e; M07e %inh, 10 µM
  M07e %inh: -0.7405%
ML-2; ML-2 %inh, 10 µM
  ML-2 %inh: 0.4088%
MOLM-13; MOLM-13 %inh, 10 µM
  MOLM-13 %inh: -0.4149%
MV4-11; MV4-11 %inh, 10 µM
  MV4-11 %inh: -0.5288%
U937; U937 %inh, 10 µM
  U937 %inh: 1.434%

## CN1C(C(=O)Nc2ccccn2)=C(O)c2ccccc2S1(=O)=O [SJ000285539-8, PIROXICAM]
CHRF288-11; CHRF288-11 %inh, 10 µM
  CHRF288-11 %inh: -0.4698%
CMK; CMK %inh, 10 µM
  CMK %inh: -3.417%
CMS; CMS %inh, 10 µM
  CMS %inh: 1.221%
M07e; M07e %inh, 10 µM
  M07e %inh: 1.469%
ML-2; ML-2 %inh, 10 µM
  ML-2 %inh: 0.7358%
MOLM-13; MOLM-13 %inh, 10 µM
  MOLM-13 %inh: -0.7172%
MV4-11; MV4-11 %inh, 10 µM
  MV4-11 %inh: 0.9197%
U937; U937 %inh, 10 µM
  U937 %inh: -0.5241%

## C[C@]12C=CC(=O)C=C1CC[C@@H]1[C@@H]2C(=O)C[C@@]2(C)[C@H]1CC[C@]2(O)C(=O)CO [SJ000285543-4, PREDNISONE]
CHRF288-11; CHRF288-11 %inh, 10 µM
  CHRF288-11 %inh: 3.346%
CMK; CMK %inh, 10 µM
  CMK %inh: -3.067%
CMS; CMS %inh, 10 µM
  CMS %inh: -1.906%
M07e; M07e %inh, 10 µM
  M07e %inh: -1.735%
ML-2; ML-2 %inh, 10 µM
  ML-2 %inh: -1.792%
MOLM-13; MOLM-13 %inh, 10 µM
  MOLM-13 %inh: -1.419%
MV4-11; MV4-11 %inh, 10 µM
  MV4-11 %inh: -0.9421%
U937; U937 %inh, 10 µM
  U937 %inh: -1.889%

## C[C@]12C=CC(=O)C=C1CC[C@@H]1[C@@H]2C(=O)C[C@@]2(C)[C@H]1CC[C@]2(O)C(=O)CO [SJ000285543-5, PREDNISONE]
CHRF288-11; CHRF288-11 %inh, 10 µM
  CHRF288-11 %inh: 4.454%
CMK; CMK %inh, 10 µM
  CMK %inh: -3.757%
CMS; CMS %inh, 10 µM
  CMS %inh: -1.984%
M07e; M07e %inh, 10 µM
  M07e %inh: 3.17%
ML-2; ML-2 %inh, 10 µM
  ML-2 %inh: -0.9024%
MOLM-13; MOLM-13 %inh, 10 µM
  MOLM-13 %inh: -2.385%
MV4-11; MV4-11 %inh, 10 µM
  MV4-11 %inh: 0.6819%
U937; U937 %inh, 10 µM
  U937 %inh: -0.6066%

## CCCCC1C(=O)N(c2ccccc2)N(c2ccccc2)C1=O [SJ000285567-6, PHENYLBUTAZONE]
CHRF288-11
  CHRF288-11 %inh: -2.959%
CMK
  CMK %inh: -7.117%
CMS
  CMS %inh: -0.9956%
M07e
  M07e %inh: 3.977%
ML-2
  ML-2 %inh: 1.616%
MOLM-13
  MOLM-13 %inh: -1.33%
MV4-11
  MV4-11 %inh: 1.406%
U937
  U937 %inh: -1.746%

## O=c1c(-c2ccc(O)cc2)coc2cc(O)ccc12 [SJ000285588-6, DAIDZEIN]
CHRF288-11
  CHRF288-11 %inh: 1.05%
CMK
  CMK %inh: -0.373%
CMS
  CMS %inh: -1.1%
M07e
  M07e %inh: 1.994%
ML-2
  ML-2 %inh: -1.236%
MOLM-13
  MOLM-13 %inh: -0.07438%
MV4-11
  MV4-11 %inh: 0.1059%
U937
  U937 %inh: -0.9488%

## CCCCC[C@H](CC(=O)NO)C(=O)N[C@H](C(=O)N1CCC[C@H]1CO)C(C)C [SJ000285589-6, ACTINONIN]
CHRF288-11
  CHRF288-11 %inh: 7.871%
CMK
  CMK %inh: 2.47%
CMS
  CMS %inh: 4.96%
M07e
  M07e %inh: 6.094%
ML-2
  ML-2 %inh: 7.53%
MOLM-13
  MOLM-13 %inh: 22.93%
MV4-11
  MV4-11 %inh: 13.23%
U937
  U937 %inh: 11.94%

## CCCCC1C(=O)N(c2ccccc2)N(c2ccc(O)cc2)C1=O (stereo not shown) [SJ000285591-4, OXYPHENBUTAZONE]
CHRF288-11
  CHRF288-11 %inh: -1.743%
CMK
  CMK %inh: -9.457%
CMS
  CMS %inh: 98.27%
M07e
  M07e %inh: 119.6%
ML-2
  ML-2 %inh: 63.81%
MOLM-13
  MOLM-13 %inh: -3.833%
MV4-11
  MV4-11 %inh: 79.54%
U937
  U937 %inh: 81.76%

## CO[C@@]1(NC(=O)Cc2cccs2)C(=O)N2C(C(=O)O)=C(COC(N)=O)CS[C@@H]21 [SJ000285599-4, CEFOXITIN SODIUM]
CHRF288-11
  CHRF288-11 %inh: -4.487%
CMK
  CMK %inh: 1.325%
CMS
  CMS %inh: -1.051%
M07e
  M07e %inh: -3.67%
ML-2
  ML-2 %inh: -2.877%
MOLM-13
  MOLM-13 %inh: 3.83%
MV4-11
  MV4-11 %inh: -5.193%
U937
  U937 %inh: -1.811%
